Experimental data: US10768184B2, “Methods for increasing palatability of pet foodstuff” (MARS, INCORPORATED, priority 2013, dated 2020)

Tests used:
cats = assay: Cat gel panel feeding test, monadic exposure (palatability, gel intake); format: in vivo
Experimental: A cat gel panel was used to compare the palatability of a range of concentrations of oleic acid in a monadic exposure. The dose response tested 8 concentrations of oleic acid ranging from 0.001% oleic acid to 1% oleic acid. All products (including the blank, 0% oleic acid) contained 25 mM L-histidine as an ingestive/positive tastant to increase the baseline gel intake, enabling the identification of a potential negative impact of the oleic acid concentration. A cat gel panel was used to compare the palatability of a range of concentrations of linoleic acid in a monadic exposure. The dose response tested 8 concentrations of linoleic acid ranging from 0.001% linoleic acid to 1% linoleic acid. All products (including the blank, 0% linoleic acid) contained 25 mM L-histidine as an ingestive/positive tastant to increase the baseline gel intake, enabling the identification of a potential negative impact of the linoleic acid concentration. A cat gel panel was used to compare the palatability of a range of concentrations of lauric acid in a monadic exposure. The dose response tested 5 concentrations of lauric acid ranging from 0.05% lauric acid to 1% lauric acid. All products (including the blank, 0% lauric acid) contained 25 mM L-histidine as an ingestive/positive tastant to increase the baseline gel intake, enabling the identification of a potential negative impact of the lauric acid concentration. A cat gel panel was used to compare the palatability of a range of concentrations of palmitic acid in a monadic exposure. The dose response tested 5 concentrations of palmitic acid ranging from 0.05% palmitic acid to 1% palmitic acid. All products (including the blank, 0% palmitic acid) contained 25 mM L-histidine as an ingestive/positive tastant to increase the baseline gel intake, enabling the identification of a potential negative impact of the palmitic acid concentration.

cat GPR120 = assay: Calcium-sensitive fluorescent dye (Fluo8) FLIPR assay, transiently transfected cells; format: cell-based; conditions: in vitro assays with the feline receptors
Experimental: These constructs were then transiently transfected into the CHO K1 immortalised cell line, and other commonly used cell lines using Lipofectamine 2000 and testing was performed to establish the successful expression of the target protein. The testing was carried out using a calcium sensitive fluorescent dye (Fluo8). Transfected cells were seeded into 384 well assay plates. By loading the cells with the dye and then challenging the cells with an agonist for the receptor the response of the cells could be recorded on the FLIPR^TETRA instrument by measuring the increase in fluorescence associated with intra-cellular calcium release, thus confirming the functional expression of the receptor. Suitable experimental controls eliminate any possibility that the response of the cells is non-specific or that the fluorescence increase is due to factors other than the release of intracellular calcium by the cells.

dogs = assay: Dog panel feeding test, monadic exposure (palatability, gel intake), two single-breed panels; format: in vivo; conditions: 100 mM L-histidine
Experimental: Two different dog panels were used to compare the palatability of concentrations of linoleic acid. Each panel was made up of a single breed of dog; each panel being a different breed. The canine panels were used to compare the palatability of a range of concentrations of linoleic acid in a monadic exposure. The dose response tested 3 concentrations of linoleic acid ranging from 0.01% linoleic acid to 1% linoleic acid. All products (including the blank, 0% linoleic acid) contained 100 mM L-histidine as an ingestive/positive tastant to increase the baseline gel intake, enabling the identification of a potential negative impact of the linoleic acid concentration. Two different dog panels were used to compare the palatability of concentrations of oleic acid. Each panel was made up of a single breed of dog; each panel being a different breed. The canine panels were used to compare the palatability of a range of concentrations of oleic acid in a monadic exposure. The dose response tested 3 concentrations of oleic acid ranging from 0.01% oleic acid to 1% oleic acid. All products (including the blank, 0% oleic acid) contained 100 mM L-histidine as an ingestive/positive tastant to increase the baseline gel intake, enabling the identification of a potential negative impact of the oleic acid concentration.

[1] = 0.1% fatty acid in gel with 25 mM L-histidine
[2] = 0.6% fatty acid in gel with 25 mM L-histidine
[3] = dog panel Breed 1, 1% fatty acid (highest tested)

For `CCCCCCCCCCCC(=O)O` [lauric acid], the “intake compared to the blank” value (cats; [1]) was “highest intake overall”, the “intake compared to the blank” value (cats; [2]) was “significantly aversive/negative” and the “intake compared to the blank” value (cats; 1% fatty acid in gel with 25 mM L-histidine) was “significantly aversive/negative”.
In the case of `CCCCC/C=C\C/C=C\CCCCCCCC(=O)O` [linoleic acid], the “intake compared to the blank” value (cats; [1]) is reported as “significantly higher intake”, the “intake compared to the blank” value (cats; higher concentrations (above 0.1%, up to 1%), 25 mM L-histidine) is reported as “trend for the higher concentrations to become aversive/negative” and the “activation of feline receptors in vitro” value (cat GPR120) is reported as “positive activation”. The “response compared to the blank” value (dogs; [3]) was “significant positive/ingestive response” and the “response compared to the blank” value (dogs; dog panel Breed 2, 3 concentrations tested, 0.01% to 1%) was “smaller differences between the linoleic acid concentrations tested”.
In the case of `CCCCCCCC/C=C\CCCCCCCC(=O)O` [oleic acid], the “intake compared to the blank” value (cats; [1]) is reported as “significantly higher intake”, the “intake compared to the blank” value (cats; 0.2% (w/v) fatty acid in gel with 25 mM L-histidine) is reported as “significantly higher intake” and the “intake compared to the blank” value (cats; 0.3% (w/v) fatty acid in gel with 25 mM L-histidine) is reported as “significantly higher intake”. For the same compound, the “intake compared to the blank” value (cats; [2]) was “significantly higher intake”, the “activation of feline receptors in vitro” value (cat GPR120) was “positive activation” and the “response compared to the blank” value (dogs; [3]) was “significant positive/ingestive response”. For the same compound, the “response compared to the blank” value (dogs; dog panel Breed 2, 0.1% fatty acid) was “significant positive/ingestive response”.
For `CCCCCCCCCCCCCCCC(=O)O` [palmitic acid], the “intake compared to the blank” value (cats; any of the 5 concentrations tested, 0.05% to 1%, 25 mM L-histidine) was “no significant difference”.
